This note sets out measurements from ChEMBL document CHEMBL1201862, “PubChem BioAssay data set” (2004).

Usually IC50 stands for the concentration at which inhibition is half-maximal. In general, EC50 refers to the concentration needed to bring the measured effect to its halfway point. One may read the AC50 as the concentration at which the activity in the assay is half-maximal. In general, Ki refers to a dissociation constant, usually derived from enzyme kinetics or from competition with a known ligand. The pKi is the negative decadic logarithm of the Ki, by convention in mol/L. A lower pKi goes with a high Ki.

Calls of active or inactive are those of the source.

Assay [1] can be described thus: Counterscreen for AddAB inhibitors: absorbance-based bacterial cell-based high throughput dose response assay for inhibitors of bacterial viability. [Related pubchem assays (depositor defined):AID435030, AID449728, AID449731, AID488942, AID488955, AID488956]. Type of assay: functional.
The target of the next assay is Genome polyprotein (dengue virus type 2, UniProt P29990). As to the kind of experiment: flavivirus cap methylation enzyme inhibition – biochemical, confirmation dose response, primary screen (AID 588689). Type of assay: functional.
Sequence of Genome polyprotein (P29990 2492-3391 limits assumed): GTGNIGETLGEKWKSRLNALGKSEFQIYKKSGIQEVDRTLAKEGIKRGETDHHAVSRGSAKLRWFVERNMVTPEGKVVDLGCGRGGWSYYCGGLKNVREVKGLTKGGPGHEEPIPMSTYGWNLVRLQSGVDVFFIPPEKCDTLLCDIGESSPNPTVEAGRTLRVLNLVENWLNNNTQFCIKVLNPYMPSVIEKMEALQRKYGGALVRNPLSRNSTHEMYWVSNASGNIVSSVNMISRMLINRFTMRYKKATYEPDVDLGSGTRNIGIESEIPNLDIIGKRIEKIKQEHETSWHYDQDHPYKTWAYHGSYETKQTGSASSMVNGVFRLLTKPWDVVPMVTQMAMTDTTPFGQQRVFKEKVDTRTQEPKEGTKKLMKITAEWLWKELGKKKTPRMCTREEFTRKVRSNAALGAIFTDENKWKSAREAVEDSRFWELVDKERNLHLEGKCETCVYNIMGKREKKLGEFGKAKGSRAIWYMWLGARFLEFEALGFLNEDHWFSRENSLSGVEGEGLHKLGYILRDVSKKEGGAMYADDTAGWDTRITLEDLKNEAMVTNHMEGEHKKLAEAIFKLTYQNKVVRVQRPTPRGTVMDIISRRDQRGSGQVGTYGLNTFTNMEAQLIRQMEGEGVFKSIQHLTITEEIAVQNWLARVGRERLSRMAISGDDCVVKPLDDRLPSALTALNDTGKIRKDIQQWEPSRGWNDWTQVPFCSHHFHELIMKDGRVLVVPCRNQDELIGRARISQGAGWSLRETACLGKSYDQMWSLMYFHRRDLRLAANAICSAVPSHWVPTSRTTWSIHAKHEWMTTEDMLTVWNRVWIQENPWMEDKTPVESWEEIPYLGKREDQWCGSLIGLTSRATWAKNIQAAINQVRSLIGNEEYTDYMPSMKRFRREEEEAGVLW
The target in a further assay is T1, Insulin-degrading enzyme (Homo sapiens, UniProt P14735).
T1 sequence (P14735 whole entry): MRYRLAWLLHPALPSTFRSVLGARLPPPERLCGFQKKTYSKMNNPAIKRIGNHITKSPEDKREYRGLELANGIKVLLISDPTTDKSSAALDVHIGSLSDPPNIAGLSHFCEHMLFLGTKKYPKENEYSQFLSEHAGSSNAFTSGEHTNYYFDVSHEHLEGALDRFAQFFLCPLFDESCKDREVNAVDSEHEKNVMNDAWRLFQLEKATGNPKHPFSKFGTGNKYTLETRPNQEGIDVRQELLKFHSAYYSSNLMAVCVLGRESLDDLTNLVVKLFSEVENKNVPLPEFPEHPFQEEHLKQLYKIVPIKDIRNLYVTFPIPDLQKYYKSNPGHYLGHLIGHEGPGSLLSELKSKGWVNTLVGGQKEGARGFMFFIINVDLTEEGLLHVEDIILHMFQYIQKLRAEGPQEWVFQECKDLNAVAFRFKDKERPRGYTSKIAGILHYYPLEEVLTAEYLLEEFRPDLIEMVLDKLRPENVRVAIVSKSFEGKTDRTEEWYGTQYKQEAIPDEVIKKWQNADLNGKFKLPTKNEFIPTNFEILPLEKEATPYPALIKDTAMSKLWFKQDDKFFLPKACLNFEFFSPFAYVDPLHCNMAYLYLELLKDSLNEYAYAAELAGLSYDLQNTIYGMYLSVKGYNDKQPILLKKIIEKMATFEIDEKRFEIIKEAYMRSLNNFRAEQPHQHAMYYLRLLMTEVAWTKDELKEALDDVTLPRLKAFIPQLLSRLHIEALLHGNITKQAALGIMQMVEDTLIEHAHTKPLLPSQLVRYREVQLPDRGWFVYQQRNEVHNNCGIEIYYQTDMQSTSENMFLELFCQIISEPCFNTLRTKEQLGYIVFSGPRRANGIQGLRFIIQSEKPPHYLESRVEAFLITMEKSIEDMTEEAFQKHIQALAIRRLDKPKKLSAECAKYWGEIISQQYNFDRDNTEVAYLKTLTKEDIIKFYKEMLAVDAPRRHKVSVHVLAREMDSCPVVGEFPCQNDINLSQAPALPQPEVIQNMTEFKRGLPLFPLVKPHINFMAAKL
The experiment in a line: recombinant IDE activation, cell-free – biochemical, fluorescence polarization, counter-screen for IDE activator project, dose response (AID 588681). A general note: In fluorescence polarisation assays a small probe gives low polarisation when free and higher when bound to something large.

A short description of assay [2]: non-specific 3'UTR reporter inhibition in Clone20-Shn3RL – cell-based, Renilla luciferase, cherry-picked, counter-screen for Shn3 inhibitor project, dose response (AID 624133). Type of assay: functional. On the technique in general: A counterscreen serves to expose hits that act by an unwanted route or on another target.
Assay [3] is described as follows: general mammalian cell viability loss – inhibitor set, cherry-pick, set 2, cytotoxicity control for miR-122 modulator project, dose response (AID 720697). Type of assay: functional, cell-based.
Assay [4] concerns the target T2, Long-chain-fatty-acid--AMP ligase FadD28 (Mycobacterium tuberculosis, UniProt P9WQ59).
T2 sequence (P9WQ59 whole entry): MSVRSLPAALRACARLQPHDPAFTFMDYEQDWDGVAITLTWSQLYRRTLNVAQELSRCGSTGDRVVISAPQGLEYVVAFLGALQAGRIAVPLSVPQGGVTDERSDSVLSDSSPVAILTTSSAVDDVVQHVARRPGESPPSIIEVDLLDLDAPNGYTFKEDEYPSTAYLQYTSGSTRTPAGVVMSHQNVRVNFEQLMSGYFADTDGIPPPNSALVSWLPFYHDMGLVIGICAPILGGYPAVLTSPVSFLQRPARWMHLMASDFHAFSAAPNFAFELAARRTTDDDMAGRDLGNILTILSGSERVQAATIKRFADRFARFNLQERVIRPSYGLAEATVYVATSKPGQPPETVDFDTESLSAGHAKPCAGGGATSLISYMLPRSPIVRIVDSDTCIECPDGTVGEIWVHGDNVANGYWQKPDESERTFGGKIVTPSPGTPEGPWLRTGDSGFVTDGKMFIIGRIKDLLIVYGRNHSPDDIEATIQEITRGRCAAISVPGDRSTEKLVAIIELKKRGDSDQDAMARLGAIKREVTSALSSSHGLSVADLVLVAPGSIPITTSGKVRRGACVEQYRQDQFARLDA
The experiment in a line: Fluorescence polarization aasay to screen for inhibitors that compete for the binding of FadD28 to a bisubstrate Measured in Biochemical System Using Plate Reader - 2147-01_Inhibitor_Dose_CherryPick_Activity. Type of assay: functional, Mycobacterium tuberculosis H37Rv.

Assay [5] addresses Tyrosine-protein kinase SYK (Homo sapiens, UniProt P43405). Type of assay: functional.
Assay [6] has as its target Cyclin-dependent kinase 2 (Homo sapiens, UniProt P24941). The assay is classed as functional.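 Note: CDK2 measured as one member of a broad kinome profiling panel.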
The target of a further assay is LIM domain kinase 1 (Homo sapiens, UniProt P53667). The experiment in a line: Navigating the Kinome. Panel member name: LIMK1. The assay is classed as functional.
Sequence of LIM domain kinase 1 (P53667 whole entry, the tested form may be a part): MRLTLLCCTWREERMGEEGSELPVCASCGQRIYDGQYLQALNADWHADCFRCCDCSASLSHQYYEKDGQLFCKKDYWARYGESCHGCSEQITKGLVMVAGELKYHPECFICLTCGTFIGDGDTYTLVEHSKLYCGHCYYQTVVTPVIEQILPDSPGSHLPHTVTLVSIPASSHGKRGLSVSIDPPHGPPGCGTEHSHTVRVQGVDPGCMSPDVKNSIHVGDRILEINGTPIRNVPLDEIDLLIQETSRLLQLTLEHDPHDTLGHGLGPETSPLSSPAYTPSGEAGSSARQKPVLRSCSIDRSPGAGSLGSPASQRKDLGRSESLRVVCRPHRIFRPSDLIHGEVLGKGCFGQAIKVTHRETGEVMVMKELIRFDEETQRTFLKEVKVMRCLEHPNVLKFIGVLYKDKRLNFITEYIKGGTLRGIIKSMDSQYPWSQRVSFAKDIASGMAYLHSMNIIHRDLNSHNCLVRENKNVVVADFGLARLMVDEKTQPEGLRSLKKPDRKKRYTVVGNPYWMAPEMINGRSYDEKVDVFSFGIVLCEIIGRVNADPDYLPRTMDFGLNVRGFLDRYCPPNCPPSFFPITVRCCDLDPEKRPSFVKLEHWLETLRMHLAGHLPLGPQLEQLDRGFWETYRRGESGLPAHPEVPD
Assay [7] addresses Platelet-derived growth factor receptor beta (Homo sapiens, UniProt P09619). Type of assay: functional.
Assay [8] has as its target T3, Mannose-6-phosphate isomerase (Homo sapiens, UniProt P34949).
T3 sequence (P34949 whole entry): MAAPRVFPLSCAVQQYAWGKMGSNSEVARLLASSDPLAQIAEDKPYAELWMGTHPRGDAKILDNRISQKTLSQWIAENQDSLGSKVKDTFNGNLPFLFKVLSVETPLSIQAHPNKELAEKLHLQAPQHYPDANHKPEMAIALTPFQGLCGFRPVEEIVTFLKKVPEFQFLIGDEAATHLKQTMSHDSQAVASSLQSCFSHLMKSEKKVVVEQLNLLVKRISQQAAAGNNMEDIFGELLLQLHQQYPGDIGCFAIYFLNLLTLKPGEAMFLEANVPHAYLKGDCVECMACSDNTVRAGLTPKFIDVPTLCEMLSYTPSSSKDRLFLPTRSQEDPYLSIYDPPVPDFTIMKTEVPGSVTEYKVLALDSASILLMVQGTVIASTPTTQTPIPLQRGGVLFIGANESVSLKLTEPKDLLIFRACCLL
The experiment in a line: MPI inhibition at elevated mannose 6-phosphate – biochemical, fluorescence intensity, high mannose 6-phosphate, primary screen (AID 1220).

Sequence of Platelet-derived growth factor receptor beta (P09619 whole entry): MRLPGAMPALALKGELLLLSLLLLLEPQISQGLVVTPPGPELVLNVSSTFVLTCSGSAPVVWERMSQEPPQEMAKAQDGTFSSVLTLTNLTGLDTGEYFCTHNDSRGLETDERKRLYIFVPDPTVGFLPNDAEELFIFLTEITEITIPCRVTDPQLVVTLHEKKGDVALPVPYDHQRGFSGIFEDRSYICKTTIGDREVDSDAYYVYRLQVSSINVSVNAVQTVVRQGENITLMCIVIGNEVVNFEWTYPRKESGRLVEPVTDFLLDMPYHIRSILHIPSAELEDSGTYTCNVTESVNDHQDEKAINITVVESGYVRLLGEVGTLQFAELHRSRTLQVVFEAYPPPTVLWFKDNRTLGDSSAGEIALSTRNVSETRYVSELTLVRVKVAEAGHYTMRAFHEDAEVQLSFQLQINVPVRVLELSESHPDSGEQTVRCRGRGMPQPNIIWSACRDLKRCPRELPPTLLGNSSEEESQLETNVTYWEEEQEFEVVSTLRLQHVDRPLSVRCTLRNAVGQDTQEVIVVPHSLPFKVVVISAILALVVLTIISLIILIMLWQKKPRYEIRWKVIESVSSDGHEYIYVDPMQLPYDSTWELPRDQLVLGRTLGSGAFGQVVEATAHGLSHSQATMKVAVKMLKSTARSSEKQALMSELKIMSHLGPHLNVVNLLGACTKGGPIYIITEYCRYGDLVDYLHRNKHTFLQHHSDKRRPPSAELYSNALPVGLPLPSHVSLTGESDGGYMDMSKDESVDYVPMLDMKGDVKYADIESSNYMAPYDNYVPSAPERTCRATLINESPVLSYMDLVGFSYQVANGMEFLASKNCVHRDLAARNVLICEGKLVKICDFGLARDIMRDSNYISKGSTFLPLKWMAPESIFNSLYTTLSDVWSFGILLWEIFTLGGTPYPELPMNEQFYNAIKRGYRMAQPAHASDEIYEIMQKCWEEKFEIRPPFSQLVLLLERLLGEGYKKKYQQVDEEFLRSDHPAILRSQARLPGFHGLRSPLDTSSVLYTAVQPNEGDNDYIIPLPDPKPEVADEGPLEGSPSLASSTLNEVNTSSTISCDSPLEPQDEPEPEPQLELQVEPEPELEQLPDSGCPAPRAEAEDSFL

In the case of `CC(C)CC(=O)NC(c1cccs1)c1ccc2cccnc2c1O` (configuration not stated), in assay [1], the IC50 is > 119 µM (inactive). As to `CCOC(=O)c1ccc(NC2=CC(=O)C(=O)c3ccccc32)cc1`, on Genome polyprotein, the IC50 was > 100 µM (active).

As for `OC(CNCCC1C=Nc2ccccc21)Cn1c2ccc(Cl)cc2c2cc(Cl)ccc21` (configuration not stated), the EC50 at Insulin-degrading enzyme is > 54.7 µM (inactive). The AC50 in assay [2] is 6.08 µM (active); in [3], 7.91 µM (active). Turning to `CCCCCCCCCCCCCCCC[N+](C)(C)C`, in [4], the AC50 was 12.7 µM (active).

On to `NC1CCC(Nc2nc(Cl)cc(-c3c[nH]c4ncccc34)n2)CC1` (configuration not stated), for which the Ki in assay [5] was > 1.58 µM (inactive); in assay [6], 31.6 nM (active). This molecule gave a negative-log Ki (pKi) in [6] of 7.5. On to `O=C(O)C1CN(Cc2ccc(OCc3ccccc3)cc2Cl)C1`, for which the Ki on LIM domain kinase 1 is > 3.16 µM (inactive); in assay [7], > 2 µM (inactive). For `Cc1ccccc1-c1cc2c(nn1)-c1ccccc1C2=O`, the IC50 in assay [8] is > 50 µM (not active).
